According to patent US7432392B2, “Ester derivatives and medical use thereof” (Japan Tobacco Inc., priority 2003, dated 2008):
pIC50: −log10 of the molar value.

Target: T1, Microsomal triglyceride transfer protein (MTP) from bovine liver (Bos taurus, UniProt P55156)
T1 construct: the purified MTP was used for the test; from tissue; host or cells: bovine liver
T1 sequence (P55156 12-887): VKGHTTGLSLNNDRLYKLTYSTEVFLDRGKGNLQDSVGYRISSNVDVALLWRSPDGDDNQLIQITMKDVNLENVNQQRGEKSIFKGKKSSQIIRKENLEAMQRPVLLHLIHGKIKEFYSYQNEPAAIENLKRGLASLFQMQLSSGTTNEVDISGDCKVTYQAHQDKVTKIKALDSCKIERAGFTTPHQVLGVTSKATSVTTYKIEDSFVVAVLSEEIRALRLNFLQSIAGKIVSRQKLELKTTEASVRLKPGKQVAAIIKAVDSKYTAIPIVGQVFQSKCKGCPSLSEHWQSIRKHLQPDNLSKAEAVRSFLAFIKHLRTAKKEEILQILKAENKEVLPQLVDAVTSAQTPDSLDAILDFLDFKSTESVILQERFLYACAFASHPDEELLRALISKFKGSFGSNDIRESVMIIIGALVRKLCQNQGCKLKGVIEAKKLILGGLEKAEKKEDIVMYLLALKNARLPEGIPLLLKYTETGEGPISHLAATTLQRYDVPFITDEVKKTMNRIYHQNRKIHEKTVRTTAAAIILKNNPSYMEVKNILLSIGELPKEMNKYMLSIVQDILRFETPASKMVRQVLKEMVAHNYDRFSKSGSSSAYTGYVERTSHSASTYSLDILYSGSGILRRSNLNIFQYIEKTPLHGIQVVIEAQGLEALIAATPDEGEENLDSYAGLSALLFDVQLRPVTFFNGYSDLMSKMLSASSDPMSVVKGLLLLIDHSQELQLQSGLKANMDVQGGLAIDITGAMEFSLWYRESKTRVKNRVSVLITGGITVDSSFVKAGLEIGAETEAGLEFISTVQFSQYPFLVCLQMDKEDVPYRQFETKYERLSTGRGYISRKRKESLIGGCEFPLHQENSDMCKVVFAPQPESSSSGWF
T1 sequence (P05307 21-510 partner): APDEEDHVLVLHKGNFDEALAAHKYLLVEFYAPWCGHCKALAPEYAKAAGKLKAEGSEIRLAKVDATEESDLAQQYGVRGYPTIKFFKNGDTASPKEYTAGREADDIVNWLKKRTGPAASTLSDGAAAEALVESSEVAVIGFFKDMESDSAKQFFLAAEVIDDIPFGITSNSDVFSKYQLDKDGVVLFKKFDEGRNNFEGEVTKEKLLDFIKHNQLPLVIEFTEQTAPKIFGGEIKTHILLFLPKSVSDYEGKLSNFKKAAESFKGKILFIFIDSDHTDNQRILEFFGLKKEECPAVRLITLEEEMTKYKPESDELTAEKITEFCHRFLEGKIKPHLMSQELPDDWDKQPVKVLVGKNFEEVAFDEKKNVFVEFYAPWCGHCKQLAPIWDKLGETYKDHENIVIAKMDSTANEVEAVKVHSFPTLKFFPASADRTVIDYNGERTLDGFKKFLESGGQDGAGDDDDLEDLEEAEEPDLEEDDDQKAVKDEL
Experiment: Inhibition of interliposomal triglyceride (TG) transfer activity by MTP
Assay type: biochemical
Conditions: MTP-mediated TG transfer between donor and acceptor liposomes, 37° C., one hour
Description: Microsomal triglyceride transfer protein (MTP) from bovine liver was partially purified in such a way described below. A buffer (50 mM Tris, 250 mM sucrose, 1 mM EDTA, 0.02% NaN3 (pH 7.4)) for making a homogenate preparation was added to bovine liver, and the mixture was homogenated under ice-cooling, then centrifuged at 10,000×g (4° C., 30 minutes) The supernatant was adjusted to pH 5.1 with hydrochloric acid, and stirred for 30 minutes. The solution was further centrifuged at 10,000×g (4° C., 30 minutes), and 1 mM Tris buffer was added to the precipitated residue, and the mixture was adjusted to pH 8.6 with sodium hydroxide. After addition of 2.7 M ammonium sulfate solution, the mixture was stirred for 30 minutes, then centrifuged at 10,000×g (4° C., 40 minutes). The resulting supernatant was served as a crude extraction fraction of MTP and stored at −80° C. under freezing. In its practical use, the crude extraction fraction of MTP was purified by column chromatography on diethylaminoethyl (DEAE) Sepharose using FPLC (Fast Performance Liquid Chromatography) system, and the purified MTP was used for the test.
Small unilamellar-vesicle (SUV) liposome (donor, 0.25 mol % triolein, 5 mol % cardiolipin) labeled with ^14C-triolein and non-labeled SUV liposome (acceptor, 0.25 mol % triolein) were prepared. A fixed amount of donor and acceptor, and MTP were mixed with a sample dissolved in DMSO or with DMSO. The mixture was incubated in a 15 mM Tris hydrochloride buffer (pH 7.4) containing 40 mM sodium chloride, 1 mM EDTA (ethylenediaminetetraacetic acid), 0.02% NaN3 and 0.5% bovine serum albumin at 37° C. for one hour. After completion of the incubation, a suspension of DEAE cellulose (50% v/v) in 15 mM Tris hydrochloride buffer (pH 7.4) was added to the above solution, and the mixture was centrifuged to separate the donor and the acceptor. The radioactivity in the acceptor was measured by liquid scintillation counter. The value obtained by subtracting the radioactivity in the blank from the amount of radioactivity in the acceptor of a DMSO group was determined as MTP-mediated TG transfer activity, and it was compared with the value obtained by subtracting the radioactivity in the blank from the radioactivity in a sample group. The blank was prepared by adding 15 mM Tris-HCl buffer (pH 7.4) in place of MTP. Inhibition rate (%) was calculated from the values obtained according to the following equation.
Inhibition rate (%)=100×(1 minus ((radioactivity of sample group minus radioactivity of blank group)/(radioactivity of DMSO group minus radioactivity of blank group))). 50% Inhibition rate (IC50) was determined on the basis of the above equation.

Structure (SMILES) | pIC50
CCOC(=O)C(COC(=O)Oc1c(F)cc(NC(=O)c2ccc(C)nc2-c2ccc(C(F)(F)F)cc2)c(C(=O)N(C)C)c1F)(C(=O)OCC)c1cccs1 [Example 2-30] | > 8.00
CCN(C)C(=O)C(COC(=O)Oc1c(F)cc(NC(=O)c2ccccc2-c2ccc(C(F)(F)F)cc2)c(C(=O)N(C)C)c1F)(C(=O)N(C)CC)c1ccccc1 [Example 2-31] | 7.00 to 8.00
CCOC(=O)C(COC(=O)Oc1c(F)cc(NC(=O)c2ccc(C(F)(F)F)cc2-c2ccc(C(F)(F)F)cc2)c(C(=O)N(C)C)c1F)(C(=O)OCC)c1cccs1 [Example 2-32] | > 8.00
CCOC(=O)C(COC(=O)Oc1c(F)cc(NC(=O)c2cccc(F)c2-c2ccc(C(F)(F)F)cc2)c(C(=O)N(C)C)c1F)(C(=O)OCC)c1cccs1 [Example 2-33] | > 8.00
CCOC(=O)C(COC(=O)Oc1c(F)cc(NC(=O)c2cccc(C)c2-c2ccc(C(F)(F)F)cc2)c(C(=O)N(C)C)c1F)(C(=O)OCC)c1cccs1 [Example 2-34] | > 8.00
CCOC(=O)C(COC(=O)Oc1c(F)cc(NC(=O)c2cc(C)ccc2-c2ccc(C(F)(F)F)cc2)c(C(=O)N(C)C)c1F)(C(=O)OCC)c1cccs1 [Example 2-35] | 7.00 to 8.00
CCOC(=O)C(COC(=O)Oc1c(F)cc(NC(=O)c2cccc(OC)c2-c2ccc(C(F)(F)F)cc2)c(C(=O)N(C)C)c1F)(C(=O)OCC)c1cccs1 [Example 2-36] | > 8.00
CCOC(=O)C(COC(=O)Oc1c(F)cc(NC(=O)c2ccc(OC)cc2-c2ccc(C(F)(F)F)cc2)c(C(=O)N(C)C)c1F)(C(=O)OCC)c1cccs1 [Example 2-37] | 7.00 to 8.00
CCOC(=O)C(COC(=O)Oc1c(F)cc(NC(=O)c2ccccc2-c2ccc(C(F)(F)F)cc2)c(C(=O)N2CCOCC2)c1F)(C(=O)OCC)c1cccs1 [Example 2-38] | 7.00 to 8.00
CCOC(=O)C(COC(=O)Oc1c(F)cc(NC(=O)c2c(C)cccc2-c2ccc(C(F)(F)F)cc2)c(C(=O)N(C)C)c1F)(C(=O)OCC)c1cccs1 [Example 2-39] | > 8.00
CCOC(=O)C(COC(=O)Oc1c(F)cc(NC(=O)c2ccccc2-c2ccc(C(F)(F)F)c(F)c2)c(C(=O)N(C)C)c1F)(C(=O)OCC)c1cccs1 [Example 2-40] | > 8.00
CCOC(=O)C(COC(=O)Oc1c(F)cc(NC(=O)c2ccccc2-c2ccc(C(F)(F)F)cc2)c(C(=O)N(C)CCOC)c1F)(C(=O)OCC)c1cccs1 [Example 2-41] | > 8.00
CCOC(=O)C(COC(=O)Oc1c(F)cc(NC(=O)c2ccccc2-c2ccc(C(F)(F)F)cc2)c(C(=O)N(C)CC(=O)OC)c1F)(C(=O)OCC)c1cccs1 [Example 2-42] | 7.00 to 8.00
CCOC(=O)C(COC(=O)Oc1c(F)cc(NC(=O)c2ccc(C)cc2-c2ccc(C(F)(F)F)cc2)c(C(=O)N2CCOCC2)c1F)(C(=O)OCC)c1cccs1 [Example 2-43] | 7.00 to 8.00
CCOC(=O)C(COC(=O)Oc1c(F)cc(NC(=O)c2ccccc2-c2ccc(C(F)(F)F)cc2)c(C(=O)N(C)C)c1F)(C(=O)OCC)c1nccs1 [Example 2-44] | 7.00 to 8.00
CCOC(=O)C(COC(=O)Oc1c(F)cc(NC(=O)c2ccccc2-c2ccc(C(F)(F)F)cc2)c(C(=O)N(C)CCO)c1F)(C(=O)OCC)c1cccs1 [Example 2-45] | 6.00 to 7.00

Structure (SMILES) | pIC50
CCOC(=O)C(COC(=O)Oc1c(F)cc(NC(=O)c2ccccc2-c2ccc(C(F)(F)F)cc2)c(C(=O)N2CCN(C(C)=O)CC2)c1F)(C(=O)OCC)c1cccs1 [Example 2-46] | 6.00 to 7.00
CCOC(=O)C(COC(=O)Oc1c(F)cc(NC(=O)c2ccccc2-c2ccc(C(F)(F)F)cc2)c(C(=O)N2CCC(O)CC2)c1F)(C(=O)OCC)c1cccs1 [Example 2-47] | 6.00 to 7.00
CCOC(=O)C(COC(=O)Oc1c(F)cc(NC(=O)c2ccccc2-c2ccc(C(F)(F)F)cc2)c(OC)c1F)(C(=O)OCC)c1cccs1 [Example 2-48] | > 8.00
CCOC(=O)C(COC(=O)Oc1c(F)cc(NC(=O)c2ccccc2-c2ccc(C(F)(F)F)cc2)cc1F)(C(=O)OCC)c1cccs1 [Example 2-49] | > 8.00
CCOC(=O)C(COC(=O)Oc1c(F)cc(NC(=O)c2ccccc2-c2ccc(C(F)(F)F)cc2)c(OC(=O)N(C)C)c1F)(C(=O)OCC)c1cccs1 [Example 2-50] | 7.00 to 8.00
CCOC(=O)C(COC(=O)Oc1c(F)cc(NC(=O)c2ccccc2-c2ccc(C(F)(F)F)cc2)c(OCC)c1F)(C(=O)OCC)c1cccs1 [Example 2-51] | > 8.00
CCOC(=O)C(COC(=O)Oc1c(F)cc(NC(=O)c2ccccc2-c2ccc(C(F)(F)F)cc2)c(OC(C)C)c1F)(C(=O)OCC)c1cccs1 [Example 2-52] | > 8.00
CCOC(=O)C(CCC(=O)Oc1ccc(NC(=O)c2ccccc2-c2ccc(C(F)(F)F)cc2)c(C(=O)N(C)C)c1)(C(=O)OCC)c1ccccc1 [Example 3, 2-Ethoxycarbonyl-2-phenylpentanedioic acid 5-{3-dimethylcarbamoyl-4-[(4′-trifluoromethylbiphenyl-2-carbonyl)amino]phenyl}ester 1-ethyl ester] | > 8.00
CCNC(=O)C(COCCC(=O)Oc1ccc(NC(=O)c2ccccc2-c2ccc(C(F)(F)F)cc2)c(C(=O)N(C)C)c1)(C(=O)NCC)c1ccccc1 [Example 3-3, 3-(2,2′-Bisethylcarbamoyl-2-phenylethoxy)propionic acid 3-dimethylcarbamoyl-4-[(4′-trifluoromethylbiphenyl-2-carbonyl)amino]phenyl ester] | > 8.00
CCOC(=O)C(CC(=O)Oc1ccc(NC(=O)c2ccccc2-c2ccc(C(F)(F)F)cc2)c(C(=O)N(C)C)c1)(C(=O)OCC)c1ccccc1 [Example 3-4] | > 8.00
CCOC(=O)C(CC(=O)OCc1ccc(NC(=O)c2ccccc2-c2ccc(C(F)(F)F)cc2)c(C(=O)N(C)C)c1)(C(=O)OCC)c1ccccc1 [Example 3-5] | > 8.00
CCOC(=O)C(CCC(=O)Oc1cc(C(=O)N(C)C)c(NC(=O)c2ccccc2-c2ccc(C(F)(F)F)cc2)cc1F)(C(=O)OCC)c1ccccc1 [Example 3-6] | > 8.00
CCOC(=O)C(CCC(=O)OCc1ccc(NC(=O)c2ccccc2-c2ccc(C(F)(F)F)cc2)c(C(=O)N(C)C)c1)(C(=O)OCC)c1ccccc1 [Example 3-7] | > 8.00
CCOC(=O)C(CCC(=O)Oc1ccc(N(C)C(=O)c2ccccc2-c2ccc(C(F)(F)F)cc2)c(C(=O)N(C)C)c1)(C(=O)OCC)c1ccccc1 [Example 3-8] | > 8.00
CCOC(=O)C(CCC(=O)Oc1c(F)cc(NC(=O)c2ccccc2-c2ccc(C(F)(F)F)cc2)c(C(=O)N(C)C)c1F)(C(=O)OCC)c1ccccc1 [Example 3-9] | > 8.00
